According to ChEMBL document CHEMBL5214948, “Boronic Acid: A Novel Pharmacophore Targeting Src Homology 2 (SH2) Domain of STAT3” (J Med Chem, 2022):
The source made the active and inactive calls. No cut-off for these calls is given here.

What was measured:
[1] = test system: MGC-803; test: Inhibition of colony formation in human MGC-803 cells at 1 uM incubated for 10 to 15 days by crystal violet staining based assay; assay type: functional, cell-based; conditions: time 10-15 day
[2] = test system: AGS; test: Antiproliferative activity against human AGS cells assessed as reduction in cell viability incubated for 72 hrs by CCK-8 assay; assay type: functional, cell-based
[3] = test system: MGC-803; test: Antiproliferative activity against human MGC-803 cells assessed as reduction in cell viability measured after 72 hrs by CCK-8 assay; assay type: functional, cell-based; conditions: MGC-803, 72 h
[4] = Half life in ICR mouse at 5 mg/kg, iv measured upto 24 hrs by LC-MS/MS analysis; assay type: ADME, organism-based; conditions: in vivo
[5] = Cmax in ICR mouse at 5 mg/kg, iv measured upto 24 hrs by LC-MS/MS analysis; assay type: ADME, organism-based; design: time < 24 hrs, dose 5 mg/kg, route iv; conditions: in vivo
[6] = in vivo; assay type: ADME, organism-based; conditions: ICR, mouse, iv, 5 mg/kg
[7] = in vivo; assay type: ADME, organism-based; conditions: ICR, mouse, iv, 5 mg/kg; remark: listed apart in the source
[8] = Clearance in ICR mouse at 5 mg/kg, iv measured upto 24 hrs by LC-MS/MS analysis; assay type: ADME, organism-based; conditions: in vivo
[9] = Volume of distribution at steady state in ICR mouse at 5 mg/kg, iv measured upto 24 hrs by LC-MS/MS analysis; assay type: ADME, organism-based; conditions: in vivo, read-out: Vdss
[10] = molecular target: T1, Signal transducer and activator of transcription 3 (Homo sapiens, UniProt P40763); test: Binding affinity to full length wild type STAT3-SH2 domain (unknown origin) assessed as association constant by SPR analysis
T1 sequence (P40763 whole entry, the tested form may be a part): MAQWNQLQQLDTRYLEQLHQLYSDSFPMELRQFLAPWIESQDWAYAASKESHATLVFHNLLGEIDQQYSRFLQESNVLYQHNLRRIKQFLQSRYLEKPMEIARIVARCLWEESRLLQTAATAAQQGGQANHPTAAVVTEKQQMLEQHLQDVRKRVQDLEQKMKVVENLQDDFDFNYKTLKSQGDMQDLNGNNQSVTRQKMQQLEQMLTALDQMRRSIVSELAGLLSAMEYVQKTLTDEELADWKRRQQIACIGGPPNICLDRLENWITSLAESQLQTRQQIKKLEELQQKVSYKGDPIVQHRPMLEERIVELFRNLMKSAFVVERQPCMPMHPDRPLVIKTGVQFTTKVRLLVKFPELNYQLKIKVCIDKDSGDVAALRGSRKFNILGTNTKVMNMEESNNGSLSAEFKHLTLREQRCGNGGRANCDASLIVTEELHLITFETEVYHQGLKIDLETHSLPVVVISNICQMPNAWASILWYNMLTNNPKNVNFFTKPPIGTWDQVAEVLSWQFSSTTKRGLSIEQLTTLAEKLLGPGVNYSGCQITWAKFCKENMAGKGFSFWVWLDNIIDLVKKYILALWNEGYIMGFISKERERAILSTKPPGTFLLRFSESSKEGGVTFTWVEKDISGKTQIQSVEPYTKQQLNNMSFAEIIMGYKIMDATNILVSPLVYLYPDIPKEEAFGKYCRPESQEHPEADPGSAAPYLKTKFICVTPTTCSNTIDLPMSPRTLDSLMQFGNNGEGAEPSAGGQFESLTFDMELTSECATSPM

[11] = molecular target: T1, Signal transducer and activator of transcription 3; test: Binding affinity to full length wild type STAT3-SH2 domain (unknown origin) assessed as equilibrium dissociation constant by SPR analysis
[12] = molecular target: T1, Signal transducer and activator of transcription 3; test: Binding affinity to full length wild type STAT3-SH2 domain (unknown origin) in human MGC-803 cells assessed as thermal stabilization of protein at 37 to 53 degreeC at 5 uM incubated for 3 hrs by cellular thermal shift assay; assay type: cell-based
[13] = molecular target: T1, Signal transducer and activator of transcription 3; test: Inhibition of STAT3 phosphorylation at Tyr705 residue in human AGS cells incubated for 24 hrs by Western blot analysis; assay type: cell-based; conditions: dose 1-3 µM, DDE = dose-dependent effect
[14] = molecular target: T1, Signal transducer and activator of transcription 3; test: Inhibition of STAT3 phosphorylation at Tyr705 residue in human MGC-803 cells incubated for 24 hrs by Western blot analysis; assay type: cell-based; conditions: dose 3-5 µM, DDE = dose-dependent effect
[15] = molecular target: T1, Signal transducer and activator of transcription 3; test: Inhibition of IL-6 induced FLAG/HA-tagged STAT3 dimerization in human HEK293T cells pretreated for 24 hrs followed by IL-6 stimulation and measured after 1 hr by immunoprecipitation assay; assay type: cell-based; conditions: time 25.0 hrs, DDE = dose-dependent effect
[16] = molecular target: T1, Signal transducer and activator of transcription 3; test: Inhibition of STAT3 transcriptional activity transfected in HEK293T cells at 3 to 5 uM incubated for 24 hrs by dual-ludferase reporter gene assay; assay type: cell-based; conditions: dose 3-5 µM
[17] = molecular target: T1, Signal transducer and activator of transcription 3; test: Inhibition of STAT3 transcriptional activity in human AGS cells assessed as downregulation of C-myc protein expression at 1 to 3 uM incubated for 24 hrs by Western blot analysis; assay type: cell-based; conditions: dose 1-3 µM
[18] = molecular target: T1, Signal transducer and activator of transcription 3; test: Inhibition of STAT3 transcriptional activity in human MGC-803 cells assessed as downregulation of C-myc protein expression at 3 to 5 uM incubated for 24 hrs by Western blot analysis; assay type: cell-based; conditions: dose 3-5 µM
[19] = molecular target: T1, Signal transducer and activator of transcription 3; test: Inhibition of STAT3 transcriptional activity in human AGS cells assessed as downregulation of Bcl-xL protein expression at 1 to 3 uM incubated for 24 hrs by Western blot analysis; assay type: cell-based; conditions: dose 1-3 µM
[20] = molecular target: T1, Signal transducer and activator of transcription 3; test: Inhibition of STAT3 transcriptional activity in human MGC-803 cells assessed as downregulation of Bcl-xL protein expression at 3 to 5 uM incubated for 24 hrs by Western blot analysis; assay type: cell-based; conditions: dose 3-5 µM
[21] = Antiproliferative activity against […] H9c2 cells assessed as reduction in cell viability incubated for 72 hrs by CCK-8 assay; assay type: toxicity, cell-based; conditions: rat
[22] = test system: AGS; test: Antiproliferative activity against human AGS cells assessed as reduction in cell viability at 1 to 3 uM incubated for 72 hrs by Edu incorporation assay; assay type: functional, cell-based; conditions: dose 1-3 µM
[23] = test system: MGC-803; test: Antiproliferative activity against human MGC-803 cells assessed as reduction in cell viability at 3 to 5 uM incubated for 72 hrs by Edu incorporation assay; assay type: functional, cell-based; conditions: dose 3-5 µM
[24] = test system: AGS; test: Inhibition of colony formation in human AGS cells at 0.5 uM incubated for 10 to 15 days by crystal violet staining based assay; assay type: functional, cell-based; conditions: time 10-15 day
[25] = test system: AGS; test: Induction of apoptosis in human AGS cells at 1 uM incubated for 72 hrs by V-FITC/PI staining based flow cytometry assay; assay type: functional
[26] = test system: AGS; test: Induction of apoptosis in human AGS cells at 3 uM incubated for 72 hrs by V-FITC/PI staining based flow cytometry assay; assay type: functional
[27] = test system: MGC-803; test: Induction of apoptosis in human MGC-803 cells at 5 uM incubated for 72 hrs by V-FITC/PI staining based flow cytometry assay; assay type: functional

- IC50 [2]: 1.54 µM
- IC50 [3]: 4.73 µM
- half-life [4]: 1.25 h
- Cmax [5]: 1500 ng/mL
- AUC(0-t) at 24 h [6]: 485 ng·h/mL
- AUC(0-inf) at 24 h [7]: 490 ng·h/mL
- clearance [8]: 176 mL/min/kg
- Vd [9]: 18.7 L/kg
- Ka [10]: 1.25 10^3/M/s
- Kd [11]: 5.02 µM
- Activity [12]: Active
- inhibition [13]: Dde
- inhibition [14]: Dde
- inhibition [15]: Dde
- inhibition [16]: Active
- inhibition [17]: Active
- inhibition [18]: Active
- inhibition [19]: Active
- inhibition [20]: Active
Structure (SMILES): CN(CC(=O)N(Cc1ccc(C2CCCCC2)cc1)c1ccc(B(O)O)cc1)S(=O)(=O)c1c(F)c(F)c(F)c(F)c1F
- inhibition [1]: Active
- IC50 at 72 h [21]: 9.05 µM
- Activity [22]: Active
- Activity [23]: Active
- inhibition [24]: Active
- Activity [25]: 13%
- Activity [26]: 26.7%
- Activity [27]: 11.2%
